Measured values: the PolyMetriX glass transition set
± gives the standard deviation of the reports.

Molecule *CCN(CCOC(=O)NCC1(C)CC(NC(=O)O*)CC(C)(C)C1)c1ccc(/N=N/c2ccc(B(c3c(C)cc(C)cc3C)c3c(C)cc(C)cc3C)cc2)cc1 (repeat unit) has a glass transition temperature of 146.00 °C.
With *CC(*)NC(=O)OC(C)(C)C (repeat unit) the glass transition temperature was 120.00 °C.
Molecule *CC(C)(CO)CO* (repeat unit) has a glass transition temperature of 62.00 °C.
*c1cc(CCCCCC)c(*)s1 (repeat unit) gave a glass transition temperature of 15.2 ± 7.3 °C.
*CCOC(=O)Nc1ccc(Cc2ccc(NC(=O)OCCOc3ccc(C4(c5ccc(O*)cc5)c5ccccc5-c5ccccc54)cc3)cc2)cc1 (repeat unit) showed a glass transition temperature of 152.00 °C.
*CCOC(=O)c1ccccc1C(=O)O* (repeat unit) [Poly(ethylene phthalate)] gave a glass transition temperature of 60.17 ± 51 °C.
With *c1ccc(Oc2ccc(-c3ccc(Oc4ccc(N5C(=O)c6ccc(Oc7ccccc7Oc7ccc8c(c7)C(=O)N(*)C8=O)cc6C5=O)cc4C(F)(F)F)cc3)cc2)c(C(F)(F)F)c1 (repeat unit) the glass transition temperature was 208.00 °C.
In the case of *NNC(=O)c1ccc(C(*)=O)cc1OCC (repeat unit), the glass transition temperature is reported as 240.00 °C.
Molecule *c1ccc2c(c1)C(=O)N(c1cc(-c3ccc(O)c(N4C(=O)c5ccc(C(*)(C(F)(F)F)C(F)(F)F)cc5C4=O)c3)ccc1O)C2=O (repeat unit) has a glass transition temperature of 370.00 °C.
*CC(*)(C)C(=O)NC(C)c1cccc2ccccc12 (repeat unit) showed a glass transition temperature of 171.00 °C.
Molecule *CC(*)c1cccc(N(c2ccc(C)cc2)c2ccc(C)cc2)c1 (repeat unit) has a glass transition temperature of 126.50 °C.
*OC(COC(=O)NCCCCCCNC(*)=O)c1ccco1 (repeat unit) showed a glass transition temperature of 17.00 °C.
In the case of *CC(C)(C)C1C(=O)OC(=O)C1* (repeat unit), the glass transition temperature is reported as 141.00 °C.
Work on *c1ccc(-c2nnc(-c3cccc(-c4nnc(*)n4-c4ccccc4)c3)n2-c2ccccc2)cc1 (repeat unit) yielded a glass transition temperature of 272.50 °C.
Work on *CC(*)c1cc(C(=O)OCCCCCCCCCCCC)ccc1-c1ccc(OCCCCCCCC)cc1 (repeat unit) yielded a glass transition temperature of 42.00 °C.
Work on *Oc1c(-c2ccccc2)cc(Cc2cc(-c3ccccc3)c(OC(=O)CCCCCC(*)=O)c(-c3ccccc3)c2)cc1-c1ccccc1 (repeat unit) yielded a glass transition temperature of 111.00 °C.
Work on *CC(*)(CC(=O)OC1CCCCCCC1)C(=O)OC1CCCCCCC1 (repeat unit) yielded a glass transition temperature of 124.00 °C.
Molecule *CC(*)c1ccccc1COCC (repeat unit) has a glass transition temperature of 74.00 °C.
*CCC1C(=O)N(CCCCCCCCCCCCCCCCCC)C(=O)C1* (repeat unit) gave a glass transition temperature of 67.10 °C.
*CC(*)(C)C(=O)OCC(=O)Nc1cc(C)on1 (repeat unit) gave a glass transition temperature of 128.00 °C.
Molecule *C(=O)c1cccc(C(=O)c2ccc3c(c2)C(=O)N(c2cccc(N4C(=O)c5ccc(*)cc5C4=O)c2)C3=O)c1 (repeat unit) has a glass transition temperature of 259.50 °C.
Work on *N=P(N=P(N=S(*)(=O)NCC)(NCC)NCC)(NCC)NCC (repeat unit) yielded a glass transition temperature of 4.00 °C.
In the case of *Oc1ccc(OC(=O)c2ccc(C(*)=O)cc2)cc1C1CCCCC1 (repeat unit), the glass transition temperature is reported as 206.00 °C.
In the case of *c1ccc2oc(-c3ccc4oc5ccc(-c6nc7cc(C(*)(C(F)(F)F)C(F)(F)F)ccc7o6)cc5c4c3)nc2c1 (repeat unit), the glass transition temperature is reported as 195.00 °C.
Molecule *c1ccc(Oc2ccc(C(=O)c3ccc(C(=O)c4ccc(Oc5ccc(-c6cc(*)n(-c7ccccc7)n6)cc5)cc4)cc3)cc2)cc1 (repeat unit) has a glass transition temperature of 205.00 °C.
In the case of *c1cc(Oc2c(C)cc(-c3cc(C)c(Oc4cc(N5C(=O)c6ccc(Oc7ccc8c(c7)C(=O)N(*)C8=O)cc6C5=O)cc(C(F)(F)F)c4)c(C)c3)cc2C)cc(C(F)(F)F)c1 (repeat unit), the glass transition temperature is reported as 252.20 °C.
Work on *Oc1ccc(C(c2ccc(OC(*)=S)cc2)C(CC)CC)cc1 (repeat unit) yielded a glass transition temperature of 148.00 °C.
Work on *C[Si](*)(CCCCC)CCCCC (repeat unit) yielded a glass transition temperature of -55.00 °C.
*/C=C/c1ccc(*)cc1 (repeat unit) [Poly(p-phenylenevinylene)s] gave a glass transition temperature of 137.42 ± 150 °C.
Work on *c1ccc(Cc2ccc(-n3c(=O)c4cc5c(=O)n(*)c(=O)c5cc4c3=O)cc2)cc1 (repeat unit) yielded a glass transition temperature of 351.00 °C.
Work on *CC(*)CCCI (repeat unit) yielded a glass transition temperature of 30.00 °C.
*O[Si](*)(C)CCCCCCCCCCCOc1ccc(-c2ccc(C(=O)Oc3ccc(C(=O)OC(C)C(=O)OC(C)C(=O)OCC(C)CC)cc3)cc2)cc1 (repeat unit) showed a glass transition temperature of 20.00 °C.
With *CCCC(C)(C)CCCn1c(=O)c2cc3c(=O)n(*)c(=O)c3cc2c1=O (repeat unit) the glass transition temperature was 135.00 °C.
Molecule *CC(*)c1ccc(CCCCCC)cc1 (repeat unit) has a glass transition temperature of -27.00 °C.
Molecule *CCN(*)C(=O)CCCCCCCCCCCCCCCCC (repeat unit) has a glass transition temperature of 10.00 °C.
Work on */C=C/c1nc(/C=C/c2ccc3c(c2)c2cc(*)ccc2n3CCCCCC)c(C#N)c(/C=C/c2ccc(N(c3ccccc3)c3ccccc3)cc2)c1C#N (repeat unit) yielded a glass transition temperature of 134.00 °C.
In the case of *c1cccc(C(=O)Nc2ccc(Oc3ccc(Oc4ccc(NC(=O)c5cccc(N6C(=O)c7ccc(-c8cccc9c8C(=O)N(*)C9=O)cc7C6=O)c5)cc4)cc3)cc2)c1 (repeat unit), the glass transition temperature is reported as 268.00 °C.
In the case of *Oc1ccc(S(=O)(=O)c2ccc(Oc3c(C)cc(C(C)(C)c4cc(C)c(*)c(C)c4)cc3C)cc2)cc1 (repeat unit), the glass transition temperature is reported as 231.30 °C.
*c1ccc(Sc2cc3c(cc2Sc2ccc(N4C(=O)c5ccc(Oc6ccc7c(c6)C(=O)N(*)C7=O)cc5C4=O)cc2)C(=O)N(c2ccc(CC)cc2)C3=O)cc1 (repeat unit) showed a glass transition temperature of 271.00 °C.
For *C(=O)Nc1cccc(NC(=O)c2ccc3c(c2)C(=O)N(c2cc(-c4nc5ccccc5o4)cc(N4C(=O)c5ccc(*)cc5C4=O)c2)C3=O)n1 (repeat unit), the glass transition temperature was 365.00 °C.
Work on */C(=C(/*)c1ccc(CCCC)cc1)c1ccccc1 (repeat unit) yielded a glass transition temperature of 200.00 °C.
With *CCC(=O)Nc1ccc(Oc2ccc(NC(=O)CCN3C(=O)c4ccc(C(=O)c5ccc6c(c5)C(=O)N(*)C6=O)cc4C3=O)cc2)cc1 (repeat unit) the glass transition temperature was 232.00 °C.
Work on *c1ccc2c(c1)C(=O)N(c1c(C)cc(C3(c4cc(C)c(N5C(=O)c6ccc(C(*)(C(F)(F)F)C(F)(F)F)cc6C5=O)c(C(C)C)c4)c4ccccc4-c4ccccc43)cc1C(C)C)C2=O (repeat unit) yielded a glass transition temperature of 335.00 °C.
With *c1ccc(Oc2cccc(-n3c(=O)c4cc5c(=O)n(-c6cccc(Oc7ccc(-c8nc9cc%10sc(*)nc%10cc9s8)cc7)c6)c(=O)c5cc4c3=O)c2)cc1 (repeat unit) the glass transition temperature was 400.00 °C.
*Oc1ccc(N(c2ccc(OCCCCCC)cc2)c2ccc(-c3ccc(N(c4ccc(*)cc4)c4ccc(OCCCCCC)cc4)cc3)cc2)cc1 (repeat unit) gave a glass transition temperature of 105.00 °C.
*c1ccc(Oc2ccc(N3C(=O)C4CCC(C5CCC6C(=O)N(*)C(=O)C6C5)CC4C3=O)cc2)cc1 (repeat unit) showed a glass transition temperature of 257.00 °C.
For *CC(O)COc1ccc(C2CCCC(CC)(c3ccc(O*)cc3)C2)cc1 (repeat unit), the glass transition temperature was 140.00 °C.
With *CC(*)(C)C(=O)OCCOCCOCC1COCCOCCOCCO1 (repeat unit) the glass transition temperature was 10.00 °C.
Molecule *O[Si](C)(C)O[Si](C)(C)O[Si](C)(C)O[Si](C)(C)c1cccc([Si](*)(C)C)c1 (repeat unit) has a glass transition temperature of -75.00 °C.
Work on *c1ccc(C(=O)OCCCCCCOC(=O)c2ccc(-c3nnc(*)s3)cc2)cc1 (repeat unit) yielded a glass transition temperature of 125.00 °C.
In the case of *c1cc(CCCCCCOC(=O)Cc2ccccc2)c(*)s1 (repeat unit), the glass transition temperature is reported as 45.00 °C.
For *c1ccc(S(=O)(=O)c2ccc(Oc3ccc(-c4nn(*)c(=O)c5ccccc45)c(F)c3)cc2)cc1 (repeat unit), the glass transition temperature was 283.00 °C.
Work on *C(=O)c1ccc2c(c1)C(=O)N(c1cccc(C(=O)c3ccc(Oc4ccc(N5C(=O)c6ccc(*)cc6C5=O)cc4C(F)(F)F)cc3)c1)C2=O (repeat unit) yielded a glass transition temperature of 242.00 °C.
Molecule *CC(*)(C)C(=O)OCCCCCCCCOc1ccc2cc(C(=O)Oc3ccccc3)ccc2c1 (repeat unit) has a glass transition temperature of 34.00 °C.
For *CCCS(=O)(=O)CCCCS(=O)(=O)CCCOC(=O)c1cccc(C(=O)O*)c1 (repeat unit), the glass transition temperature was 65.00 °C.
In the case of *C(=O)c1ccc2c(c1)C(=O)N(c1cc(C(=O)O)cc(N3C(=O)c4ccc(*)cc4C3=O)c1)C2=O (repeat unit), the glass transition temperature is reported as 314.00 °C.
Work on *Nc1ccc(*)cc1OCCCCCCCCCCCC (repeat unit) yielded a glass transition temperature of 87.00 °C.
Work on *c1ccc(Oc2ccc(N3C(=O)c4ccc(Oc5cccc6c5C(=O)N(*)C6=O)cc4C3=O)cc2)cc1 (repeat unit) yielded a glass transition temperature of 285.00 °C.
Molecule *O[Si](*)(C)CCCOc1ccc(C(=O)Oc2ccc(-c3ccc(OC(=O)c4cc(OCCCCCCCCCCCC)c(OCCCCCCCCCCCC)c(OCCCCCCCCCCCC)c4)cc3)cc2)cc1 (repeat unit) has a glass transition temperature of 48.00 °C.
*c1ccc(Oc2cccc(Oc3ccc(N4C(=O)c5cccc(Oc6ccc(-c7ccc(Oc8cccc9c8C(=O)N(*)C9=O)cc7)cc6)c5C4=O)cc3)c2)cc1 (repeat unit) gave a glass transition temperature of 224.00 °C.
For *C(=O)OCCCCCOC(=O)c1ccc(NC(=O)c2ccc(N3C(=O)c4ccc(*)cc4C3=O)cc2)cc1 (repeat unit), the glass transition temperature was 129.00 °C.
For */C(C)=C(/*)SCC (repeat unit), the glass transition temperature was 160.00 °C.
Work on *C(=O)Nc1ccc2c(c1)-c1cc(NC(=O)c3ccc4c(c3)C(=O)N(c3cccc(P(=O)(c5ccccc5)c5cccc(N6C(=O)c7ccc(*)cc7C6=O)c5)c3)C4=O)ccc1C2 (repeat unit) yielded a glass transition temperature of 248.00 °C.
*C(=O)Nc1ccc(Oc2ccccc2-c2ccccc2Oc2ccc(NC(=O)c3ccc4c(c3)C(=O)N(c3ccc(C)c(N5C(=O)c6ccc(*)cc6C5=O)c3)C4=O)cc2)cc1 (repeat unit) gave a glass transition temperature of 266.00 °C.
*c1ccc(-c2cnc3cc4nc(*)cnc4cc3n2)cc1 (repeat unit) gave a glass transition temperature of 392.00 °C.
In the case of *Oc1c(C)cc(C(=O)c2ccc(*)cc2)cc1C (repeat unit), the glass transition temperature is reported as 200.00 °C.
*Oc1ccc(S(=O)(=O)c2ccc(Oc3c(C)cc(-c4cc(C)c(*)c(C)c4Br)c(Br)c3C)cc2)cc1 (repeat unit) gave a glass transition temperature of 298.20 °C.
